Assays:
[1] = test system: 22Rv1 cells (mild PSMA+); test: Cell uptake / binding in 22Rv1 cells; format: cell-based, human; conditions: 60 min incubation, 37 °C
Source text: Cell lines were kindly provided by the stem cell bank of the Chinese Academy of Sciences. The human prostate cancer epithelial cell lines 22Rv1 (mild PSMA+) and PC-3 (with no PSMA receptor) were used to evaluate the specific cell-binding affinity of the radiotracers, and the results were expressed as percentages of injected activity, IA%/10^6.
Cell Lines and Culture Condition
Cell lines were kindly provided by the stem cell bank, the Chinese Academy of Sciences. The human prostate cancer cell lines 22Rv1 ( mild PSMA positive) and PC3 (PSMA negative) were cultured in RPMI 1640 medium or F12K medium (CORNING, America), supplemented with 10% Fetal Bovine Serum
(GIBCO, The Netherlands) and 1% penicillin-streptomycin (CORNING, America) in a humidified incubator at 37 °C under 5% CO2. Each cell line was passaged when it was at around 80-90% confluence, and harvested using trypsin-ethylenediaminetetraacetic acid (trypsin-EDTA; 0.25% trypsin, 0.02% EDTA, all from KeyGEN BioTECH).
Cells were seeded separately in 24 well plates (1 x 10^5 cells in 1 mL medium/well) and incubated overnight, the medium was changed 2 h before the experiment. For the binding experiments, cells were incubated with novel […]
min, 30 min and 60 min (6 wells/time point). After incubation, the medium was removed and the cells were washed twice with ice-cold phosphate-buffered saline (0.5 mL). Finally, the cells were lysed by NaOH (0.5 M, 0.5 mL). Coincubation of 2-(phosphonomethyl) pentane-1,5-dioic acid […]
(2-PMPA) solution (2 μg/well) and each radiotracer for 60 min was conducted as the blocking experiment. The radioactivity of cells was measured by a γ-counter. The studies were performed in triplicate and the results were reported as the percentage injected activity (IA%/10^6 cells). […]

[2] = Blood pharmacokinetics in male ICR mice; format: in vivo; conditions: 7.4 MBq i.v., two-compartment model
Method: Injection of novel radiotracers or [68Ga]Ga-PSMA-617 or [68Ga]Ga-PSMA-11 […]
mice (5 mice/group), and the blood sample (5 μL) of each mouse was collected by cutting down the tail end at different time points post injection. The radioactivity of blood samples were measured by a γ-counter and the pharmacokinetics data was calculated using the WinNonlin software.
Figure S3. Time-activity curves of the blood samplesafter injection of 7.4 MBq of [68Ga]Ga-PSMA-4PY (A), [68Ga]Ga-PSMA-Q (B),[68Ga]Ga-PSMA-P (C), [68Ga]Ga-PSMA-617 (D), [68Ga]Ga-PSMA-11 (E), [68Ga]Ga-PSMA-Q-1 (F), [68Ga]Ga-PSMA-Q-2 (G) and [68Ga]Ga-PSMA-Q-3 (H).
(1 picture or pasted object on this page, not shown here)

[3] = test system: 22Rv1 tumor-bearing mice; test: Biodistribution in 22Rv1 tumor-bearing mice; conditions: for Uptake Blood, Mean / Uptake Bone, Mean / Uptake Heart, Mean / Uptake Kidney, Mean / Uptake Liver, Mean / Uptake Lung, Mean / Uptake Muscle, Mean / Uptake Spleen, Mean / Uptake Tumor (22Rv1), Mean: 0.74 MBq, n = 3
Method: (§1) The animal studies were approved by the institutional animal care and use committee of the Chinese PLA General Hospital. Healthy male ICR mice were injected with either a novel radiotracer (37 MBq in 150 μL) or saline (150 μL) for the radiotoxicity evaluation. […] Biodistribution and micro-PET studies were performed on 22Rv1 and PC-3 xenograft models, and 2-PMPA was used as the PSMA blocker (all details are shown in the Supplementary Materials).
BALB/c nude mice (male, 4-6 weeks) were inoculated subcutaneously with […]
100 mm3, the mice underwent biodistribution study and Micro-PET imaging.
The 22Rv1 tumor-bearing mice were injected with each novel radiotracer or […]
[…] Mice were sacrificed at different time points p.i. (10 min, 30 min, 60 min), tumors and interested organs were harvested, weighed and measured by a γ-counter, the results were expressed as the percentage of injected dose per gram (ID%/g).
Table S1. Uptake values for ex vivo tissues of [ 68Ga]Ga-PSMA-Q (0.74 MBq/mice) in 22Rv1 tumor-bearing mice (10, 30 and 60 min p.i., n = 3/time point).

[4] = test system: 22Rv1 tumors; test: Micro-PET imaging in 22Rv1 tumor-bearing mice; format: in vivo; conditions: 22Rv1 tumor, 60 min p.i., 7.4 MBq
Method: as §1
Table S9. Tumor-to-mu scle (T/M) ratio and tumor- to-kidney (T/K) rati o of radiotracers at 60 min p.i.
The Mice bearing 22Rv1 and PC-3 (n = 3/group) xenograft tumors were […]
Co-injection with 2-PMPA (50 μ g) and each novel tracer (7.4 MBq in 150 μL) was used for blocking. Then the mice were anesthetized with 3% (v/v) isoflurane and underwent Micro-PET scans with continuous 1% (v/v) isoflurane. The images were acquired at 60 min p.i.. In comparison, […]
into another group of mice (n = 3), and Micro-PET schedule was performed as […]
Imaging was performed on a Super Nova PET/CT scanner using a 100-mm-transaxial field of view for PET and 110-mm for CT.
Three-dimensional ordered-subsets expectation maximization reconstruction

[5] = biodistribution, 22Rv1 tumor-bearing mice, 60 min p.i.

SMILES | Uptake in 22Rv1 cells [1] | Elimination half-life [2] | Uptake Blood, Mean ([3]; 10 min p.i.) | Uptake Bone, Mean ([3]; 10 min p.i.) | Uptake Heart, Mean ([3]; 10 min p.i.) | Uptake Kidney, Mean ([3]; 10 min p.i.) | Uptake Liver, Mean ([3]; 10 min p.i.) | Uptake Lung, Mean ([3]; 10 min p.i.) | Uptake Muscle, Mean ([3]; 10 min p.i.) | Uptake Spleen, Mean ([3]; 10 min p.i.) | Uptake Tumor (22Rv1), Mean ([3]; 10 min p.i.) | Uptake Blood, Mean ([3]; 30 min p.i.) | Uptake Bone, Mean ([3]; 30 min p.i.) | Uptake Kidney, Mean ([3]; 30 min p.i.) | Uptake Liver, Mean ([3]; 30 min p.i.) | Uptake Lung, Mean ([3]; 30 min p.i.) | Uptake Muscle, Mean ([3]; 30 min p.i.) | Uptake Spleen, Mean ([3]; 30 min p.i.) | Uptake Tumor (22Rv1), Mean ([3]; 30 min p.i.) | Uptake Blood, Mean ([3]; 60 min p.i.) | further results
O=C([O-])CN(CCN(CC(=O)[O-])Cc1cc(CCC(=O)NCCCCCC(=O)NCCCC[C@H](NC(=O)N[C@@H](CCC(=O)O)C(=O)O)C(=O)O)ccc1[O-])Cc1cc(CCC(=O)O)ccc1[O-].[68Ga+3].[OH3+] [[^68Ga]Ga-PSMA-11, reference compound] | 3.19 ± 0.27 IA%/10^6 | 16.69 ± 1.77 min | 2.28 ID%/g | 0.72 ID%/g | 2.54 ID%/g | 10.20 ID%/g | 1.53 ID%/g | 0.77 ID%/g | 0.81 ID%/g | 0.99 ID%/g | 1.61 ID%/g | 0.91 ID%/g | 0.30 ID%/g | 2.76 ID%/g | 0.78 ID%/g | 0.53 ID%/g | 0.30 ID%/g | 0.53 ID%/g | 1.90 ID%/g | 0.22 ID%/g | Uptake Bone, Mean ([3]; 60 min p.i.): 0.17 ID%/g; Uptake Heart, Mean ([3]; 60 min p.i.): 0.53 ID%/g; Uptake Kidney, Mean ([3]; 60 min p.i.): 1.61 ID%/g; Uptake Liver, Mean ([3]; 60 min p.i.): 0.47 ID%/g; Uptake Lung, Mean ([3]; 60 min p.i.): 0.21 ID%/g; Uptake Muscle, Mean ([3]; 60 min p.i.): 0.14 ID%/g; Uptake Spleen, Mean ([3]; 60 min p.i.): 0.40 ID%/g; Uptake Tumor (22Rv1), Mean ([3]; 60 min p.i.): 2.38 ID%/g; SUVmax of tumor [4]: 0.76 ± 0.18
O=C([O-])CN1CCN(CC(=O)[O-])CCN(CC(=O)NCCCCCC(=O)NC(Cc2cnc3ccccc3c2)C(=O)NCCCCC(NC(=O)NC(CCC(=O)O)C(=O)O)C(=O)O)CCN(CC(=O)O)CC1.[68Ga+3] (stereo not drawn) [[^68Ga]Ga-PSMA-Q-2] | 2.99 ± 0.15 IA%/10^6 | 20.22 ± 0.97 min | 1.87 ID%/g | 1.12 ID%/g | 1.76 ID%/g | 13.88 ID%/g | 1.62 ID%/g | 0.83 ID%/g | 0.65 ID%/g | 2.34 ID%/g | 1.34 ID%/g | 0.69 ID%/g | 0.71 ID%/g | 20.74 ID%/g | 1.21 ID%/g | 0.61 ID%/g | 0.37 ID%/g | 1.41 ID%/g | 1.87 ID%/g | 0.47 ID%/g | Uptake Heart, Mean ([3]; 30 min p.i.): 1.08 ID%/g; Uptake Bone, Mean ([3]; 60 min p.i.): 0.53 ID%/g; Uptake Heart, Mean ([3]; 60 min p.i.): 0.50 ID%/g; Uptake Kidney, Mean ([3]; 60 min p.i.): 26.62 ID%/g; Uptake Liver, Mean ([3]; 60 min p.i.): 0.52 ID%/g; Uptake Lung, Mean ([3]; 60 min p.i.): 0.55 ID%/g; Uptake Muscle, Mean ([3]; 60 min p.i.): 0.16 ID%/g; Uptake Spleen, Mean ([3]; 60 min p.i.): 1.05 ID%/g; Uptake Tumor (22Rv1), Mean ([3]; 60 min p.i.): 2.15 ± 0.33 ID%/g; Uptake Tumor (22Rv1), Mean ([3]; 60 min p.i., listed as [68Ga]Ga-PSMA-Q-2): 2.15 ID%/g; Tumor-to-kidney (T/K) ratio [3, 5]: 0.08 ± 0.02; Tumor-to-muscle (T/M) ratio [3, 5]: 13.41 ± 0.39; Clearance profile in the kidneys ([3]; within 60 min p.i.): continuously accumulated in the kidneys; SUVmax of tumor [4]: 0.47 ± 0.11
